Measured values taken from patent publication US20150168420A1, “BIOORTHOGONAL CHEMICAL INDUCERS OF REVERSIBLE DIMERIZATION FOR CONTROL OF PROTEIN FUNCTION IN CELLS” (MAX-PLANCK-GESELLSCHAFT ZUR FÖRDERUNG DER WISSENSCHAFTEN …, priority 2012, published 2015).

How the values were obtained:
[1] = target: eDHFR and FKBP(F36V) (UniProt P0ABQ4+P62942, F37V); assay: Size exclusion chromatography and SDS-PAGE of eDHFR / FKBP(F36V) mixture with ligand; assay type: binding
Method: FIG. 1: Efficiency and specificity of SLF′-TMP (compound 13) binding (comp. example 2). • In the absence of SLF′-TMP (solid line) or in the presence of 100 μM SLF′-TMP (compound 13, dashed line). • a) size exclusion chromatography profile • b) SDS-PAGE analysis
A size exclusion chromatography profile of a mixture of 100 μM eDHFR and FKBP(F36V) was performed in the absence or the presence of 100 μM SLF′-TMP (compound 13) (see FIG. 1a).
A SDS-PAGE analysis of fractions from the gel filtration was carried out in the absence and the presence of the ligand SLF′-TMP (compound 13), respectively (see FIG. 1b).

[2] = target: ECFP-eDHFR and YFP-FKBP(F36V) (UniProt P0ABQ4+P62942, F37V); assay: FRET titration of ligand-induced heterodimerization of recombinant fusion proteins; assay type: binding; settings: 400 nM ECFP-eDHFR and 400 nM YFP-FKBP(F36V)

With `CCC(C(=O)N1CCCCC1C(=O)O[C@H](CCc1ccc(OC)c(OC)c1)c1cccc(OCC(=O)NCCCOCCOCCOCCCNC(=O)COc2c(OC)cc(Cc3cnc(N)nc3N)cc2OC)c1)c1cc(OC)c(OC)c(OC)c1` (stereo partly shown) [SLF′-TMP] the “binding to FKBP(F36V) and eDHFR by size exclusion chromatography” value ([1]; 100 μM eDHFR and FKBP(F36V), 100 μM ligand) was “binds effectively”, the “binding to FKBP(F36V) and eDHFR by SDS-PAGE of gel filtration fractions” value ([1]; presence versus absence of ligand) was “binds to FKBP(F36V) and eDHFR” and the “FRET signal (ratio of fluorescence 523 nm / 475 nm) upon titration” value [2] was “dose-dependent increase”. The Kd ([2]; quadratic fit, read-out: dissociation constant Kd from FRET titration) was 0.12 ± 0.04 µM.
